Measured values from patent US20250163104A1, “MACROCYCLIC IMMUNOMODULATORS” (priority 2021, published 2025).
Where a SMILES comes first, the peptide text is derived from it. Bridges are numbered along the chain shown (N, C = ends). [ ]: non-standard residue; d: D form. The star is where a group is joined. ξ: configuration not given here. Phe(3,4-Cl2) = N[C@@H](Cc1ccc(Cl)c(Cl)c1)C(=O)O; Phe(3-CF3) = N[C@@H](Cc1cccc(C(F)(F)F)c1)C(=O)O; Ala(morpholin-4-yl) = N[C@@H](CN1CCOCC1)C(=O)O; Phe(4-CONH2) = NC(=O)c1ccc(C[C@H](N)C(=O)O)cc1; Phe(4-COOH) = N[C@@H](Cc1ccc(C(=O)O)cc1)C(=O)O; Bip = N[C@@H](Cc1ccc(-c2ccccc2)cc1)C(=O)O; Phe(3-Me) = Cc1cccc(C[C@H](N)C(=O)O)c1; Val(3-OH) = CC(C)(O)[C@H](N)C(=O)O; 4Pal = N[C@@H](Cc1ccncc1)C(=O)O; 3Thi = N[C@@H](Cc1ccsc1)C(=O)O; Cha = N[C@@H](CC1CCCCC1)C(=O)O; Cit = NC(=O)NCCC[C@H](N)C(=O)O; Thr(3ξ) = CC(O)[C@H](N)C(=O)O; Chg = N[C@H](C(=O)O)C1CCCCC1; Carboxymethyl = O=C(O)C*; Nle = CCCC[C@H](N)C(=O)O; Orn = NCCC[C@H](N)C(=O)O; Pra = C#CC[C@H](N)C(=O)O; Dab = NCC[C@H](N)C(=O)O; Dap = NC[C@H](N)C(=O)O; Ac3c = NC1(C(=O)O)CC1

Molecular target: T1, human PD-1 / PD-L1-Ig binding on Jurkat cell line over-expressing human PD-1 (Jurkat-PD-1) (Homo sapiens, UniProt Q15116)
T1 construct: expressed in transfected cells; host or cells: Jurkat
Test: Jurkat-PD-1 Cell Binding High-Content Screening Assay (CBA)
Type: cell-based
Conditions: Jurkat HPD1_PDL1 IC50, Jurkat-PD-1 cells, PE-labeled PD-L1-Ig 20 nM final
Summary of the method: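 Read-out: high-content imaging of PE-tagged PD-L1-Ig bound to Jurkat cells overexpressing human PD-1, after fixation with 4% paraformaldehyde and Hoechst 33342 nuclear staining. Ligand was used at 20 nM final for 1 hour, after a 2 h compound exposure at 37° C in serum-containing DMEM.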

T1 sequence (Q15116 25-288): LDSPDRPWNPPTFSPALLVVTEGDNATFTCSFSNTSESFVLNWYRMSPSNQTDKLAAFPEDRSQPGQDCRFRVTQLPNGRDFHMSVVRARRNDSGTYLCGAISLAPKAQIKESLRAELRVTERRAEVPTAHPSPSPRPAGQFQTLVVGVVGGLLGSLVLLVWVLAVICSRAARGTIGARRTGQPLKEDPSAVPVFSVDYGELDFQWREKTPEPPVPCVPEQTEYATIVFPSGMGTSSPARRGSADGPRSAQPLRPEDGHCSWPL

| Compound | IC50 |
| --- | --- |
| CC(C)C[C@H]1NC(=O)[C@H](CCCN)NC(=O)[C@H](C(C)C)NC(=O)[C@H](Cc2ccc(-c3ccccc3)cc2)NC(=O)[C@H](C2CCCCC2)NC(=O)[C@H](Cc2c[nH]c3ccccc23)NC(=O)[C@H](CC(=O)O)NC(=O)[C@H](Cc2ccc(OCC(=O)O)cc2)NC(=O)[C@H](CN)NC(=O)CSC[C@@H](C(=O)N[C@@H](C)C(N)=O)NC(=O)[C@H]([C@@H](C)O)NC(=O)[C@H](C(C)C)NC(=O)[C@H](CC2CCCCC2)NC(=O)[C@H](CCN)NC1=O [Compound 1730] ({CH2CO}-[Dap]Y(Carboxymethyl)DW[Chg][Bip]V[Orn][dL][Dab][Cha]VTCA-NH2; thioether N-14) | 0.0324 µM |

Same assay, conditions: Jurkat-PD-1 cells, PE-labeled PD-L1-Ig 20 nM final; read-out: Jurkat HPD1_PDL1 IC50

| Compound | IC50 |
| --- | --- |
| C#CC[C@H](NC(=O)[C@H](CCN)NC(=O)[C@@H]1CSCC(=O)N[C@@H](Cc2ccncc2)C(=O)N[C@@H](Cc2ccc(C(=O)O)cc2)C(=O)N[C@@H](CC(=O)O)C(=O)N[C@@H](Cc2cccc(C)c2)C(=O)N[C@@H](Cc2ccc(OCC(=O)O)cc2)C(=O)N[C@@H](Cc2ccc(-c3ccccc3)cc2)C(=O)N[C@@H](Cc2ccc(OCC(=O)O)cc2)C(=O)N[C@@H](CCCN)C(=O)N[C@H](CC(C)C)C(=O)N[C@@H](CCN)C(=O)N[C@@H](CC2CCCCC2)C(=O)N[C@@H](C(C)(C)O)C(=O)N[C@@H](CO)C(=O)N1)C(=O)O [Compound 2318] ({CH2CO}-[4Pal][Phe(4-COOH)]D[Phe(3-Me)]Y(Carboxymethyl)[Bip]Y(Carboxymethyl)[Orn][dL][Dab][Cha][Val(3-OH)]SC[Dab][Pra]-OH; thioether N-14) | 0.677 µM |
| CC(C)C[C@H]1NC(=O)[C@H](CCCN)NC(=O)[C@H](CCCNC(N)=O)NC(=O)[C@H](Cc2ccc(-c3ccccc3)cc2)NC(=O)[C@H](C(C)C)NC(=O)[C@H](Cc2c[nH]c3ccccc23)NC(=O)[C@H](CC(=O)O)NC(=O)[C@H](Cc2ccc(OCC(=O)O)cc2)NC(=O)[C@H](CCN)NC(=O)CSC[C@@H](C(=O)N[C@@H](CCN)C(N)=O)NC(=O)[C@H](C(C)O)NC(=O)[C@H](C(C)C)NC(=O)[C@H](CC2CCCCC2)NC(=O)[C@H](CCN)NC1=O (stereo partly drawn) [Compound 2638] ({CH2CO}-[Dab]Y(Carboxymethyl)DWV[Bip][Cit][Orn][dL][Dab][Cha]V[Thr(3ξ)]C[Dab]-NH2; thioether N-14) | 0.0161 µM |
| CC(C)C[C@H]1NC(=O)[C@H](CCCN)NC(=O)[C@H](CCCNC(N)=O)NC(=O)[C@H](Cc2ccc(-c3ccccc3)cc2)NC(=O)[C@H](C(C)C)NC(=O)[C@H](Cc2c[nH]c3ccccc23)NC(=O)[C@H](CC(=O)O)NC(=O)[C@H](Cc2ccc(Cl)c(Cl)c2)NC(=O)[C@H](CN)NC(=O)CSC[C@@H](C(=O)N[C@@H](C)C(N)=O)NC(=O)[C@H]([C@@H](C)O)NC(=O)[C@H](C(C)C)NC(=O)[C@H](CC2CCCCC2)NC(=O)[C@H](CCN)NC1=O [Compound 2130] ({CH2CO}-[Dap][Phe(3,4-Cl2)]DWV[Bip][Cit][Orn][dL][Dab][Cha]VTCA-NH2; thioether N-14) | 0.0966 µM |
| CC[C@H](C)[C@@H]1NC(=O)[C@H](Cc2ccc(-c3ccccc3)cc2)NC(=O)[C@H](C(C)C)NC(=O)[C@H](Cc2cccc(C(F)(F)F)c2)NC(=O)[C@H](CC(=O)O)NC(=O)[C@H](Cc2ccncc2)NC(=O)[C@H](CN)NC(=O)CSC[C@@H](C(=O)N[C@@H](C)C(N)=O)NC(=O)[C@H]([C@@H](C)O)NC(=O)[C@H](C(C)C)NC(=O)[C@H](CC2CCCCC2)NC(=O)[C@H](CCN)NC(=O)[C@@H](CC(C)C)NC(=O)[C@H](CCCN)NC1=O [Compound 1564] ({CH2CO}-[Dap][4Pal]D[Phe(3-CF3)]V[Bip]I[Orn][dL][Dab][Cha]VTCA-NH2; thioether N-14) | 0.0361 µM |
| CC(C)C[C@H]1NC(=O)[C@H](CCCN)NC(=O)[C@H](CCC(=O)O)NC(=O)[C@H](Cc2ccc(-c3ccccc3)cc2)NC(=O)[C@H](C(C)C)NC(=O)[C@H](Cc2c[nH]c3ccccc23)NC(=O)[C@H](CC(=O)O)NC(=O)[C@H](Cc2ccc(OCC(=O)O)cc2)NC(=O)[C@H](CN)NC(=O)CSC[C@@H](C(=O)N[C@@H](C)C(N)=O)NC(=O)[C@H]([C@@H](C)O)NC(=O)[C@H](C(C)C)NC(=O)[C@H](CC2CCCCC2)NC(=O)[C@H](CCC(N)=O)NC1=O [Compound 1513] ({CH2CO}-[Dap]Y(Carboxymethyl)DWV[Bip]E[Orn][dL]Q[Cha]VTCA-NH2; thioether N-14) | 0.0257 µM |
| CC(C)C[C@H]1NC(=O)[C@H](CCCN)NC(=O)[C@H](C(C)C)NC(=O)[C@H](Cc2ccc(-c3ccccc3)cc2)NC(=O)[C@H](C(C)C)NC(=O)[C@H](Cc2c[nH]c3ccccc23)NC(=O)[C@H](CC(=O)O)NC(=O)[C@H](Cc2ccc(OCC(=O)O)cc2)NC(=O)[C@H](CCCCNC(=N)N)NC(=O)CSC[C@@H](C(=O)N[C@@H](C)C(N)=O)NC(=O)[C@H](C(C)O)NC(=O)[C@H](C(C)C)NC(=O)[C@H](CC2CCCCC2)NC(=O)[C@H](Cc2c[nH]cn2)NC1=O (some centres unmarked) [Compound 2555] | 0.0195 µM |
| CC(C)C[C@@H]1NC(=O)[C@H](CCCCN)NC(=O)[C@@H](CC(C)C)NC(=O)[C@H](CCCN)NC(=O)[C@H](Cc2cnc[nH]2)NC(=O)[C@H](Cc2ccc(-c3ccccc3)cc2)NC(=O)[C@H](C(C)C)NC(=O)[C@H](Cc2c[nH]c3ccccc23)NC(=O)[C@H](CC(=O)O)NC(=O)[C@H](Cc2ccc(O)cc2)NC(=O)[C@H](CC(N)=O)NC(=O)CSC[C@@H](C(=O)N[C@@H](C)C(N)=O)NC(=O)[C@H](CO)NC(=O)[C@H](C(C)C)NC1=O [Compound 1134] ({CH2CO}-NYDWV[Bip]H[Orn][dL]KLVSCA-NH2; thioether N-14) | 0.0321 µM |
| CCCC[C@@H]1NC(=O)[C@H](Cc2c[nH]c3ccccc23)NC(=O)[C@H](CC(=O)O)NC(=O)[C@H](Cc2ccc(OCC(=O)O)cc2)NC(=O)[C@H](CN)NC(=O)CSC[C@@H](C(=O)N[C@@H](C)C(N)=O)NC(=O)[C@H]([C@@H](C)O)NC(=O)[C@H](C(C)C)NC(=O)[C@H](CC2CCCCC2)NC(=O)[C@H](CCN)NC(=O)[C@@H](CC(C)C)NC(=O)[C@H](CCCN)NC(=O)[C@H](CCC(=O)O)NC(=O)[C@H](Cc2ccc(-c3ccccc3)cc2)NC1=O [Compound 1718] ({CH2CO}-[Dap]Y(Carboxymethyl)DW[Nle][Bip]E[Orn][dL][Dab][Cha]VTCA-NH2; thioether N-14) | 0.0242 µM |

Results, then the compound that gave them:

| IC50 | Compound |
| --- | --- |
| 0.0117 µM | Cc1cccc(C[C@@H]2NC(=O)[C@H](CC(=O)O)NC(=O)[C@H](Cc3ccc(OCC(=O)O)cc3)NC(=O)[C@H](Cc3ccncc3)NC(=O)CSC[C@@H](C(=O)NC3(C(N)=O)CC3)NC(=O)[C@H](CO)NC(=O)[C@H](C(C)C)NC(=O)[C@H](CC3CCCCC3)NC(=O)[C@H](CCN)NC(=O)[C@@H](CC(C)C)NC(=O)[C@H](CCCN)NC(=O)[C@H](Cc3ccc(OCC(=O)O)cc3)NC(=O)[C@H](Cc3ccc(-c4ccccc4)cc3)NC(=O)[C@H](Cc3ccc(OCC(=O)O)cc3)NC2=O)c1 [Compound 2064] ({CH2CO}-[4Pal]Y(Carboxymethyl)D[Phe(3-Me)]Y(Carboxymethyl)[Bip]Y(Carboxymethyl)[Orn][dL][Dab][Cha]VSC[Ac3c]-NH2; thioether N-14) |
| 0.0104 µM | CCCC[C@H]1NC(=O)[C@H](CCCN)NC(=O)[C@H]([C@@H](C)CC)NC(=O)[C@H](Cc2ccc(-c3ccccc3)cc2)NC(=O)[C@H](C(C)C)NC(=O)[C@H](Cc2c[nH]c3ccccc23)NC(=O)[C@H](CC(=O)O)NC(=O)[C@H](Cc2ccc(OCC(=O)O)cc2)NC(=O)[C@H](Cc2ccncc2)NC(=O)CSC[C@@H](C(=O)N[C@@H](C)C(N)=O)NC(=O)[C@H]([C@@H](C)O)NC(=O)[C@H](C(C)C)NC(=O)[C@H](CC2CCCCC2)NC(=O)[C@H](CCN)NC1=O [Compound 1709] |
| 0.005 µM | Cc1cccc(C[C@@H]2NC(=O)[C@H](CC(=O)O)NC(=O)[C@H](Cc3ccc(C(N)=O)cc3)NC(=O)[C@H](Cc3ccncc3)NC(=O)CSC[C@@H](C(=O)N[C@@H](CCN)C(N)=O)NC(=O)[C@H](CO)NC(=O)[C@H](C(C)(C)O)NC(=O)[C@H](CC3CCCCC3)NC(=O)[C@H](CCN)NC(=O)[C@@H](CC(C)C)NC(=O)[C@H](CCCN)NC(=O)[C@H](Cc3ccc(OCC(=O)O)cc3)NC(=O)[C@H](Cc3ccc(-c4ccccc4)cc3)NC(=O)[C@H](Cc3ccc(C(=O)O)cc3)NC2=O)c1 [Compound 2627] ({CH2CO}-[4Pal][Phe(4-CONH2)]D[Phe(3-Me)][Phe(4-COOH)][Bip]Y(Carboxymethyl)[Orn][dL][Dab][Cha][Val(3-OH)]SC[Dab]-NH2; thioether N-14) |
| 0.0031 µM | Cc1cccc(C[C@@H]2NC(=O)[C@H](CC(=O)O)NC(=O)[C@H](Cc3ccc(C(=O)O)cc3)NC(=O)[C@H](Cc3ccsc3)NC(=O)CSC[C@@H](C(=O)N[C@@H](CCN)C(N)=O)NC(=O)[C@H](CO)NC(=O)[C@H](C(C)(C)O)NC(=O)[C@H](CC3CCCCC3)NC(=O)[C@H](CCN)NC(=O)[C@@H](CC(C)C)NC(=O)[C@H](CCCN)NC(=O)[C@H](Cc3ccc(OCC(=O)O)cc3)NC(=O)[C@H](Cc3ccc(-c4ccccc4)cc3)NC(=O)[C@H](Cc3ccc(OCC(=O)O)cc3)NC2=O)c1 [Compound 2617] ({CH2CO}-[3Thi][Phe(4-COOH)]D[Phe(3-Me)]Y(Carboxymethyl)[Bip]Y(Carboxymethyl)[Orn][dL][Dab][Cha][Val(3-OH)]SC[Dab]-NH2; thioether N-14) |
| 0.0021 µM | C#CC[C@H](NC(=O)[C@H](CCN)NC(=O)[C@@H]1CSCC(=O)N[C@@H](CN2CCOCC2)C(=O)N[C@@H](Cc2ccc(C(=O)O)cc2)C(=O)N[C@@H](CC(=O)O)C(=O)N[C@@H](Cc2cccc(C)c2)C(=O)N[C@@H](Cc2ccc(C(=O)O)cc2)C(=O)N[C@@H](Cc2ccc(-c3ccccc3)cc2)C(=O)N[C@@H](Cc2ccc(C(=O)O)cc2)C(=O)N[C@@H](CCCN)C(=O)N[C@H](CC(C)C)C(=O)N[C@@H](CCN)C(=O)N[C@@H](CC2CCCCC2)C(=O)N[C@@H](C(C)(C)O)C(=O)N[C@@H](CO)C(=O)N1)C(N)=O [Compound 1847] ({CH2CO}-[Ala(morpholin-4-yl)][Phe(4-COOH)]D[Phe(3-Me)][Phe(4-COOH)][Bip][Phe(4-COOH)][Orn][dL][Dab][Cha][Val(3-OH)]SC[Dab][Pra]-NH2; thioether N-14) |
